Assay: Exposure of crystalline form to about 100% room humidity, crystal form monitored by XRD
Format: physicochemical
Details: after exposure to about 100% RH for about 7 days at about room temperature, Form I prepared from ethyl acetate (about 80 mg)
Description: A round aluminum sample holder with zero background was used.

Crystal form: Amorphous
Structure (SMILES): CN(C)c1cc(NC(=O)CNC(C)(C)C)c(O)c2c1C[C@H]1C[C@H]3[C@H](N(C)C)C(O)=C(C(N)=O)C(=O)[C@@]3(O)C(O)=C1C2=O [Form I, (4S,4aS,5aR,12aS)-9-(2-(tert-butylamino)acetamido)-4,7-bis(dimethylamino)-1,4,4a,5,5a,6,11,12a-octahydro-3,10,12,12a-tetrahydroxy-1,11-dioxo-2-naphthacenecarboxamide]
